Assay results from patent US6352833B1, “Methods for discovery of vasoactive compounds for the nitric oxide-cyclic GMP signal pathway” (priority 1999, dated 2002).

Tests used:
[1] = test system: TXA2-specific GTPase in human platelet membranes; test: TXA2 receptor-coupled GTPase activity in human platelet membranes; type: biochemical
Experimental: Platelets were prepared from plateletpheresis units as described (Benka, M. L. et al., 1995, supra; Zhu, Y. et al., 1994, supra).
TXA2-stimulated GTPase activity was measured in platelet membranes by initiating reactions by the addition of 20-45 μg of platelet membranes to tubes in the absence or presence of 10 μM of the thromboxane analog, U46619, (Benka, M. L. et al., The MBL Physiology Course, Busa, W. B. & Mendelsohn, M. E., 1995, FEBS Lett. 363: 49-52). The final reaction mixture (total volume=100 μl) contained 0.4 μM GTP, including 0.6-0.9 μCi of [γ-^32P]GTP(1.5-2×10^6 dpm), as well as 100 mM NaCl, 0.1 mM EGTA, 2 mM MgCl2, 1 mM dithiothreitol, 0.1 mM ATP, 5 mM phosphocreatine, 100 units/ml creatine phosphokinase, 0.2% bovine serum albumin, 50 mM triethanolamine HCl, pH 7.4, and indicated concentrations of agonist.
[…] GTPase reactions were terminated with 5% activated charcoal/20 mM phosphoric acid, and high affinity GTPase activity was measured and calculated (Shenker, A. et al., 1991, J. Biol. Chem. 268: 26011-26017; Benka et al., supra).

TXA2 receptor = biological target: T1, TXA2 receptor (Homo sapiens, UniProt P21731); test: In vivo phosphorylation of TXA2 receptors in 32P-labeled HEL cells; type: cell-based
T1 construct: HEL cells, which contain high densities of the platelet TXA2 receptor; endogenous in cells; host or cells: HEL cells
T1 sequence (P21731 1-343): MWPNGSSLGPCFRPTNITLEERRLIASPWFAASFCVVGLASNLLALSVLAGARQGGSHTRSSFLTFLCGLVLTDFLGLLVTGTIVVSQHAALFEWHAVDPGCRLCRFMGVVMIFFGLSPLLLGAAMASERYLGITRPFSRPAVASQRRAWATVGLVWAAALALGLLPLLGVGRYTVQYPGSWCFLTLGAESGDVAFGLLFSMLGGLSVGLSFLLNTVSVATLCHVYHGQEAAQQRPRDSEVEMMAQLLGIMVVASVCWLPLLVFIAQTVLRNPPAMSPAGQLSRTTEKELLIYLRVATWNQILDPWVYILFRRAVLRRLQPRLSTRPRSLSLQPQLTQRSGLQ
Experimental: To examine whether cGMP can lead to phosphorylation of TXA2 receptors in vivo, studies were performed using HEL cells, which contain high densities of the platelet TXA2 receptor (Allan, C. J. et al., 1996, J. Pharmacol. Exp. Ther. 277:1132-1139; Mayeux, P. R. et al., 1989, J. Pharmacol. Exp. Ther. 250:923-927).
HEL cells were labeled with ^32P (Mendelsohn, M. E. et al., 1991, supra) and then exposed to buffer alone (10 minutes), U46619 (5 μM, 10 minutes), or 8-Br-cGMP (10 mM, 15 minutes). Reactions were terminated by addition of ice-cold TEB buffer: 20 mM Tris-Cl, pH 7.4, 5 mM EGTA, 0.128 mg/ml phenylmethylsulfonyl fluoride, 0.15 mg/ml benzamidine Cl, followed by preparation of solubilized TXA2 receptor fractions in CHAPS buffer: 20 mM Tris-Cl, pH 7.4, 5 mM EGTA, 25% glycerol, 0.128 mg/ml phenylmethylsulfonyl fluoride, 0.15 mg/ml benzamidine Cl, 10 mM CHAPS (Schror, K. et al., 1995, Biochem. Pharmacol. 49: 921-927). TXA2 receptor fractions were then purified on and eluted from TXA2 antibody affinity beads, resolved by SDS-PAGE, and transferred to nitrocellulose. Receptor was quantified by immunoblotting and phosphorylation was quantitated by PhosphorImager analysis (Mendelsohn, M. E. et al., 1991, supra). […]

Gαq/Gα11 = test: Immunoprecipitation of Gαq/Gα11 from 32P-labeled platelets; type: cell-based, human; details: 32P-labeled platelets treated with compound
From the text: (§1) In separate immunoprecipitation experiments, we also examined whether Gαq/Gα11 or its effector PLCβ, were phosphorylated in response to NO or cGMP. Anti-Gαq/Gα11 antibodies were obtained from D. Manning (University of Pennsylvania; Woolkalis, M. J. et al., 1986, J. Biol. Chem. 261:3408-3413).

thrombin receptor = test: Thrombin receptor-mediated vascular smooth muscle cell activation; type: cell-based; details: FIG. 6A-6C; effect reversed by inhibition of G kinase
From the text: The activation of vascular smooth muscle cells by thrombin receptor is inhibited by nitric oxide (FIG. 6A). […] This effect is reversed by inhibition by G kinase.

PLCβ = PLCβ phosphorylation in platelets (PLCβ antibodies); type: cell-based, human; details: monoclonal and polyclonal PLCβ antibodies
From the text: as §1

Row | SMILES | Gαq/Gα11 G protein phosphorylation (Gαq/Gα11) | inhibition of thrombin receptor-mediated vascular smooth muscle cell activation (thrombin receptor) | phosphorylation of PLCβ (PLCβ) | further results
1 | Nc1nc2c(nc(Br)n2[C@@H]2O[C@@H]3COP(=O)(O)O[C@H]3[C@H]2O)c(=O)[nH]1 [8-Br-cGMP, 8-bromo-cyclic GMP] | did not demonstrate any significant G protein phosphorylation |  |  | IC50 ([1]; platelet membranes pretreated 10 minutes at room temperature before U46619 stimulation, n=3 experiments in triplicate, read-out: mean IC50, inhibition of U46619-stimulated GTPase activity): 75 nM; decrease of basal platelet membrane GTPase activity ([1]; pretreatment with 500 μm 8-Br-cGMP, n=4): 8±9%; TXA2 receptor phosphorylation (TXA2 receptor; 10 mM, 15 minutes): clear and significant increases in TXA2 receptor phosphorylation to a level comparable with agonist-induced phosphorylation
2 | CC(=O)N[C@@H](CSN=O)C(=O)O [S-nitroso-N-acetylcysteine] | did not demonstrate any significant G protein phosphorylation |  |  | 
3 | CCCCC[C@H](O)/C=C/[C@@H]1[C@@H](C/C=C\CCCC(=O)O)[C@H]2CO[C@@H]1C2 [U46619] |  |  |  | average increase in GTPase activity (stimulation of TXA2-specific GTPase) ([1]; untreated platelet membranes, 10 μM U46619, n=three experiments in triplicate): 5.5±1.3 pmol of 32P/min/mg platelet pr; TXA2 receptor phosphorylation (TXA2 receptor; 5 μM, 10 minutes): phosphorylated
4 | Nc1nc2c(ncn2[C@@H]2O[C@@H]3COP(=O)(O)O[C@H]3[C@H]2O)c(=O)[nH]1 [cyclic GMP] |  | inhibition | no increase in phosphorylation of PLCβ | 
5 | [N]=O [nitric oxide] |  | inhibited | no increase in phosphorylation of PLCβ | 
